Measured values: PMC11904993, “Humanized Candida and NanoBiT Assays Expedite Discovery of Bdf1 Bromodomain Inhibitors With Antifungal Potential” (Advanced Science, 2025)
“And” between values parts separate entries of the source, which are not always exact repeats. Equal values may be shown once. Read-outs that look alike come from different tables or passages of the source.

Legend:
[1] = molecular target: T1, CaBdf1 BD2 (Candida albicans, UniProt Q5A4W8); assay: HTRF assay, inhibition of H4ac4 peptide binding; design: species or system C. albicans
T1 construct: BD1 (residues 193–327) and BD2 (residues 361–501) from CaBdf1 (Uniprot ID Q5A4W8); made in house; host or cells: E. coli BL21(DE3)
T1 sequence (Q5A4W8 361-501): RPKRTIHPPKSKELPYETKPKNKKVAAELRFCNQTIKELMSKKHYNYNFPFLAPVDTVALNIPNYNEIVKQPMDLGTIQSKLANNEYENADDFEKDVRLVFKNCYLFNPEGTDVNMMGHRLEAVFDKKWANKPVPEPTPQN

[2] = molecular target: CgBdf1 BD2 (Candida glabrata, UniProt Q6FWV7); assay: biochemical; type: binding, C. glabrata
Sequence of CgBdf1 BD2 (Q6FWV7 entry or part of it): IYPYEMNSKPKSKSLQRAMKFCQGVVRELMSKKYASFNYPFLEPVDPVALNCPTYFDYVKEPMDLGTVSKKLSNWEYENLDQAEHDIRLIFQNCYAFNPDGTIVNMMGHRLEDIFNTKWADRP

[3] = molecular target: C. auris Bdf1 BD1 (Candidozyma auris (Candida auris), UniProt A0AAW0VEM6); assay: HTRF assay, inhibition of H4ac4 peptide binding
Sequence of C. auris Bdf1 BD1 (A0AAW0VEM6 entry or part of it): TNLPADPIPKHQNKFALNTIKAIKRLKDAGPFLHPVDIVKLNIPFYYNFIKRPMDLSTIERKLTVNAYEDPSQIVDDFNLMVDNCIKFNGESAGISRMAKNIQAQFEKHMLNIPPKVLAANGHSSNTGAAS

[4] = molecular target: T2, CaBdf1 BD1 (Candida albicans, UniProt Q5A4W8); assay: HTRF assay, inhibition of H4ac4 peptide binding; design: species or system C. albicans
T2 construct: BD1 (residues 193–327) and BD2 (residues 361–501) from CaBdf1 (Uniprot ID Q5A4W8); made in house; host or cells: E. coli BL21(DE3)
T2 sequence (Q5A4W8 193-327): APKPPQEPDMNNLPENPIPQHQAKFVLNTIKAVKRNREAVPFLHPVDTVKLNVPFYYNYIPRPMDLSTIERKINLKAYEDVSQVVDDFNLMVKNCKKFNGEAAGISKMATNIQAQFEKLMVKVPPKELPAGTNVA

[5] = tested on: C. glabrata expressing humanized Bdf1 (Brd4 BDs); assay: Growth inhibition in liquid media, humanized C. glabrata strains; settings: Fig 3D; 50 µM; humanized BDF1-flag; Exp 1-3
Experimental: Growth on Liquid Media with C. glabrata Lab Strains: Cells were grown at 30 °C in SC+M+C‐U medium (SC medium with 5 mM methionine, 0.25 mM cysteine, without uracil) to an OD600 of 0.5–0.8. […] Plates were incubated at 30 °C and OD600 was measured using a Multiskan FC Microplate Photometer (Thermo Fisher).

[6] = molecular target: T3, Bdf1/Swc4 (Saccharomyces cerevisiae, UniProt P35817); assay: NanoBiT assay, control pair; type: cell-based, S. cerevisiae; design: remaining activity: dose or concentration left out as unconfirmed
T3 construct: expressed in transfected cells; host or cells: S. cerevisiae
T3 sequence (P35817 whole entry): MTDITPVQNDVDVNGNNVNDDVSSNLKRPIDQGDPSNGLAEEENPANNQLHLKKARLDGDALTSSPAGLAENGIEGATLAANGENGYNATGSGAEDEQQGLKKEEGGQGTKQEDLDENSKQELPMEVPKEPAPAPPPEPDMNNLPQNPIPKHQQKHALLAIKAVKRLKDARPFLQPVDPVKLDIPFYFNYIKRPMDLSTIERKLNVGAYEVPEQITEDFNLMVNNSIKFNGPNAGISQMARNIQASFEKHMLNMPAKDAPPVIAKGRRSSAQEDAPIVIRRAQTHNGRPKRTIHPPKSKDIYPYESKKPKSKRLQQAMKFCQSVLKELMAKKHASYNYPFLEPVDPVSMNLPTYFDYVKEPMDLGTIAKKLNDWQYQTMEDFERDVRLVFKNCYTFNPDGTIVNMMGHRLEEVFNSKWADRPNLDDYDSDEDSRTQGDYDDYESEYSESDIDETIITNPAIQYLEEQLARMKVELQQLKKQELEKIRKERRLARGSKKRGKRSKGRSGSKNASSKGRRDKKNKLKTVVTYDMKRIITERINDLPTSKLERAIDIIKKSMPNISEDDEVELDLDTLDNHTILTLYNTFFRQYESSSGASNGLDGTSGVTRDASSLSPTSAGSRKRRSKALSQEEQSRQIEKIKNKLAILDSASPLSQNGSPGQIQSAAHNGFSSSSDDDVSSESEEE
T3 sequence (P53201 whole entry, further chain): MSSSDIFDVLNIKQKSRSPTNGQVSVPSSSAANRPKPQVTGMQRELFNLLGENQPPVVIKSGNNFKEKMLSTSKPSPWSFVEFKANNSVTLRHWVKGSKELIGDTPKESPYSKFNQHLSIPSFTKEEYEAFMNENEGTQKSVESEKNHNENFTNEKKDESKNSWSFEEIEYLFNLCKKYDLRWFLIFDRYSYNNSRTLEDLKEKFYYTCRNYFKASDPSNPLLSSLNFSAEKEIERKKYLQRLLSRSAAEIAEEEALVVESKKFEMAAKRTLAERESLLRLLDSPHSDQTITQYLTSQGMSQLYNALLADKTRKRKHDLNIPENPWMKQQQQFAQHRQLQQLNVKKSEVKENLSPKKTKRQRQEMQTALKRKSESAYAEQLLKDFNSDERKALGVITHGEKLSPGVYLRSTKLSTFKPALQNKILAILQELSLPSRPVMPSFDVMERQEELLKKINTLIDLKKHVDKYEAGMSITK
Experimental: Yeast strains were distributed in 96‐well microplates containing SC(MSG)‐U medium (SC‐U medium with 0.1% monosodium glutamate instead of ammonium sulfate as a nitrogen source) and grown at 30 °C. 40 µL of exponentially growing cells were transferred in white 96‐well half‐area microplates (ProxiPlate Plus, Greiner Bio‐One) previously filled with 40 µL per well of SC(MSG) containing 100 µM furimazine. The microplates were then incubated for 10 min in the dark before the luminescence signals were recorded using a microplate reader (Ensight, PerkinElmer). Luminescence measurements were performed for 1 s per well at a distance of 0.1 mm between the plate and the detector. The luminescence values were normalized with the optical density (OD600) of the corresponding cultures. For NanoBiT assays with BET inhibitors, yeast cultures were grown overnight at 30 °C in SC(MSG) medium in the presence of serial dilutions of 24c and I‐BET726. Overnight cultures were diluted 5 fold in SC(MSG) and incubated for 1 h before luminescence was recorded as previously indicated. Luminescence values for each condition were normalized using the average of the luminescence recorded for the Bdf1/Swc4 and Bmh1/Bmh2 controls.

## Cc1ccc(-c2nnc(C)c(NCc3ccc(C)o3)n2)cc1 [Compound 24c, 6‐methyl‐N‐((5‐methylfuran‐2‐yl)methyl)‐3‐(p‐tolyl)‐1,2,4‐triazin‐5‐amine]
[1]; CaBD2, 24c 20.00 microM, Exp1-2, read-out: Percent HTRF Signal
  remaining activity at 20 µM: 74.1%
[1]; HTRF, Fig S9C
  inhibition of Bdf1 BD2 from C. albicans: weakly inhibited
[2]; 24 h, Fig 2E, 0.002 microM, read-out: %HTRF Signal CgBdf1 BD2
  activity at 0.002 µM: 108%
[2]; 24 h, Fig 2E, 0.005 microM, read-out: %HTRF Signal CgBdf1 BD2
  activity at 0.005 µM: 102%
[2]; 24 h, Fig 2E, 0.013 microM, read-out: %HTRF Signal CgBdf1 BD2
  activity at 0.013 µM: 118%
[2]; 24 h, Fig 2E, 0.033 microM, read-out: %HTRF Signal CgBdf1 BD2
  activity at 0.033 µM: 109%
[2]; 24 h, Fig 2E, 0.082 microM, read-out: %HTRF Signal CgBdf1 BD2
  activity at 0.082 µM: 99.8%
[2]; 24 h, Fig 2E, 0.205 microM, read-out: %HTRF Signal CgBdf1 BD2
  activity at 0.205 µM: 104%
[2]; 24 h, Fig 2E, 0.512 microM, read-out: %HTRF Signal CgBdf1 BD2
  activity at 0.512 µM: 101%
[2]; 24 h, Fig 2E, 1.280 microM, read-out: %HTRF Signal CgBdf1 BD2
  activity at 1.28 µM: 93.8%
[2]; 24 h, Fig 2E, 3.200 microM, read-out: %HTRF Signal CgBdf1 BD2
  activity at 3.2 µM: 83.5%
[2]; 24 h, Fig 2E, 8.000 microM, read-out: %HTRF Signal CgBdf1 BD2
  activity at 8 µM: 60.2%
[2]; Fig 2C original data, analogs of 24, single experiments Exp1-3, read-out: pIC50 CgBD2 (converted)
  IC50: 13.9 µM and 12 µM and 9.53 µM
[2]; Fig 2E, mean and s.d., three independent experiments, read-out: IC50 (μM) CgBD2
  IC50: 11.8 µM and 12 µM
[3]; CauBD1, 24c 0.0021 microM, Exp1-3, read-out: Percent HTRF Signal
  remaining activity at 0.0021 µM: 100%
[3]; CauBD1, 24c 0.0052 microM, Exp1-3, read-out: Percent HTRF Signal
  remaining activity at 0.0052 µM: 94.1%
[3]; CauBD1, 24c 0.013 microM, Exp1-3, read-out: Percent HTRF Signal
  remaining activity at 0.013 µM: 99.7%
[3]; CauBD1, 24c 0.033 microM, Exp1-3, read-out: Percent HTRF Signal
  remaining activity at 0.033 µM: 98.7%
[3]; CauBD1, 24c 0.082 microM, Exp1-3, read-out: Percent HTRF Signal
  remaining activity at 0.082 µM: 99.6%
[3]; CauBD1, 24c 0.20 microM, Exp1-3, read-out: Percent HTRF Signal
  remaining activity at 0.2 µM: 104%
[3]; CauBD1, 24c 0.51 microM, Exp1-3, read-out: Percent HTRF Signal
  remaining activity at […]: 96.3%
[3]; CauBD1, 24c 1.28 microM, Exp1-3, read-out: Percent HTRF Signal
  remaining activity at 1.28 µM: 91.7%
[3]; CauBD1, 24c 3.20 microM, Exp1-3, read-out: Percent HTRF Signal
  remaining activity at 3.2 µM: 84.9%
[3]; CauBD1, 24c 8.00 microM, Exp1-3, read-out: Percent HTRF Signal
  remaining activity at 8 µM: 83.4%
[3]; CauBD1, 24c 20.00 microM, Exp1-3, read-out: Percent HTRF Signal
  remaining activity at 20 µM: 64.7%
[3]; HTRF, Fig S9C
  inhibition of Bdf1 BD1 from C. auris: weakly inhibited
[4]; CaBD1, 24c 0.013 microM, Exp1-2, read-out: Percent HTRF Signal
  remaining activity at 0.013 µM: 94%
[4]; CaBD1, 24c 0.033 microM, Exp1-2, read-out: Percent HTRF Signal
  remaining activity at 0.033 µM: 100%
[4]; CaBD1, 24c 0.082 microM, Exp1-2, read-out: Percent HTRF Signal
  remaining activity at 0.082 µM: 99.6%
[4]; CaBD1, 24c 0.20 microM, Exp1-2, read-out: Percent HTRF Signal
  remaining activity at 0.2 µM: 102%
[4]; CaBD1, 24c 0.51 microM, Exp1-2, read-out: Percent HTRF Signal
  remaining activity at […]: 96.9%
[4]; CaBD1, 24c 1.28 microM, Exp1-2, read-out: Percent HTRF Signal
  remaining activity at 1.28 µM: 99%
[4]; CaBD1, 24c 3.20 microM, Exp1-2, read-out: Percent HTRF Signal
  remaining activity at 3.2 µM: 90.4%
[4]; CaBD1, 24c 8.00 microM, Exp1-2, read-out: Percent HTRF Signal
  remaining activity at 8 µM: 85.5%
[4]; CaBD1, 24c 20.00 microM, Exp1-2, read-out: Percent HTRF Signal
  remaining activity at 20 µM: 73.3%
[4]; HTRF, Fig S9C
  inhibition of Bdf1 BD1 from C. albicans: weakly inhibited
[5]
  %Growth: 82.6% and 80.3% and 69.6%
[6]; Bdf1-SmBiT, Swc4-LgBiT, 0.1953 mM, Fig 4C, read-out: Normalized nanoBiT signal
  remaining activity at 195.3 µM: 93%
[6]; Bdf1-SmBiT, Swc4-LgBiT, 0.3906 mM, Fig 4C, read-out: Normalized nanoBiT signal
  remaining activity at 390.6 µM: 104%
[6]; Bdf1-SmBiT, Swc4-LgBiT, 0.7813 mM, Fig 4C, read-out: Normalized nanoBiT signal
  remaining activity at 781.3 µM: 108%
[6]; Bdf1-SmBiT, Swc4-LgBiT, 1.5625 mM, Fig 4C, read-out: Normalized nanoBiT signal
  remaining activity at 1562.5 µM: 100%
[6]; Bdf1-SmBiT, Swc4-LgBiT, 3.1250 mM, Fig 4C, read-out: Normalized nanoBiT signal
  remaining activity at 3125 µM: 101%
[6]; Bdf1-SmBiT, Swc4-LgBiT, […], Fig 4C, read-out: Normalized nanoBiT signal
  remaining activity: 96%
[6]; control pair independent of Bdf1 BDs
  inhibition of NanoBiT signal, Bdf1/Swc4: not observed
